Data as given in patent US5922711A, “8-substituted quinazolines, quinoxalines and benzopyridazines” (Fujisawa Pharmaceutical Co., Ltd., priority 1993, dated 1999).
Structures can show the parent of a compound that is named as a salt.

Target: T1, Bradykinin receptor (Cavia porcellus, UniProt O70526)
T1 construct: The ileum was removed and homogenized in buffer; from tissue; host or cells: guinea pig ileum, crude membrane suspension
T1 sequence (O70526 1-372): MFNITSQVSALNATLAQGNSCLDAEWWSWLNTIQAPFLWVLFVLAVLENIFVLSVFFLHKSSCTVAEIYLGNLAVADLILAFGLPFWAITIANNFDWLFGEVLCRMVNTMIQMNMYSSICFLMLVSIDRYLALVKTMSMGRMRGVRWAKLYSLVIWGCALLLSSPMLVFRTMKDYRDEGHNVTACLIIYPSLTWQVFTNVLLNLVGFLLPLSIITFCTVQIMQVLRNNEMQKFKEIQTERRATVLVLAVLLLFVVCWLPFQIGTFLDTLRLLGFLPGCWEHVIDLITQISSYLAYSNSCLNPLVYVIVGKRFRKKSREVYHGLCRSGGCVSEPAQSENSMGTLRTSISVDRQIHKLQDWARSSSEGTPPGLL
Experiment: 3H-Bradykinin receptor binding (guinea pig ileum crude membrane)
Conditions: concentration: 1 × 10^-6 M, 3H-Bradykinin 0.06 nM, room temperature, 60 minutes
Description: ^3 H-Bradykinin receptor binding
(a) Crude ileum membrane preparation
Male Hartly strain guinea pigs were sacrificed by decapitation. The ileum was removed and homogenized in buffer (50 mM trimethylaminoethanesulfonic acid (TES), 1 mM 1,10-phenanthroline pH 6.8). The homogenate was centrifuged (1000×g, 20 minutes) to remove tissue clumps and the supernatant was centrifuges (100,000×g, 60 minutes) to yield a pellet. The pellet was resuspended in buffer (50 mm TES, 1 mM 1,10-phenanthroline, 140 mg/l bacitracin, 1 mM dithiothreiol, 0.1% bovine serum albumin pH 6.8) and homogenized with a glass-teflon homogenizer to yield suspension which was referred to as crude membrane suspension. The obtained membrane suspension was stored at -80° C. until use.
(b) ^3 H-Bradykinin binding to the membrane
The frozen crude membrane suspension was thawed. In binding assays, ^3 H-Bradykinin (0.06 nM) and drug (1×10^-6 M) were incubated with 50 μl of the membrane suspension at room temperature for 60 minutes in a final volume of 250 μl. Separation of receptor-bound from free ^3 H-Bradykinin is achieved by immediate filtration under vacuum and washed three times with 5 ml of ice-cold buffer (50 mM Tris-HCl pH 7.5). Non-specific binding was defined as binding in the presence of 0.1 μM Bradykinin. The radioactivity retained on rinsed filters was determined by a liquid-scintillation counter.

| SMILES | inhibition at 1 µM |
| --- | --- |
| CCc1cc(Cl)c2cccc(OCc3c(Cl)ccc(N(C)C(=O)CNC(=O)Nc4cccc(C(C)=O)c4)c3Cl)c2n1 [29-(36), 8-[3-[N-[N'-(3-Acetylphenyl)ureidoacetyl]-N-methylamino]-2,6-dichlorobenzyloxy]-4-chloro-2-ethylquinoline hydrochloride] | 98% |
| CCNC(=O)NCC(=O)N(C)c1ccc(Cl)c(COc2cccc3c(OC)cc(C)nc23)c1Cl [41-(64), 8-[2,6-Dichloro-3-[N-(N'-ethylureidoacetyl)-N-methylamino]benzyloxy]-4-methoxy-2-methylquinoline hydrochloride] | 95% |
| CCC(=O)Nc1cccc(NC(=O)NCC(=O)N(C)c2ccc(Cl)c(COc3cccc4ccc(C)nc34)c2Cl)c1 [57 (hydrochloride), 8-[2,6-Dichloro-3-[N-methyl-N-[N'-(3-propionamidophenyl)ureidoacetyl]amino]benzyloxy]-2-methylquinoline] | 99% |

The remaining lines, values ahead:

| inhibition at 1 µM | SMILES |
| --- | --- |
| 99% | Cc1ccc2cccc(OCc3c(Cl)ccc(N(C)C(=O)CNC(=O)/C=C/c4ccc(OCCN(C)C)cc4)c3Cl)c2n1 [41-(53), 8-[2,6-Dichloro-3-[N-[4-[2-(N,N-dimethylamino)ethoxy]cinnamoylglycyl)-N-methylamino]benzloxy]-2-methylquinoline dihydrochloride] |
| 99% | Cc1ccc2cccc(OCc3c(Cl)ccc(N(C)C(=O)CNC(=O)/C=C/c4ccc(N)cc4)c3Cl)c2n1 [35-(3), 8-[3-[N-(4-Aminocinnamoylglycyl)-N-methylamino]-2,6-dichlorobenzyloxy]-2-methylquinoline] |
| 100% | Cc1ccc2cccc(OCc3c(Cl)ccc(N(C)C(=O)CNC(=O)Nc4cccc(C(=O)N(C)c5cccnc5)c4)c3Cl)c2n1 [34-(7), 8-[2,6-Dichloro-3-[N-methyl-N-[N'-[3-[N-methyl-N-(3-pyridyl)carbamoyl]phenyl]ureidoacetyl]amino]benzyloxy]-2-methylquinoline] |
| 99% | Cc1ccc2cccc(OCc3c(Cl)ccc(N(C)C(=O)CNC(=O)/C=C/c4ccc(NC(=O)c5ccccn5)cc4)c3Cl)c2n1 [58-(11) (dihydrochloride), 8-[2,6-Dichloro-3-[N-methyl-N-[4-(2-pyridine-carboxamido)cinnamoylglycyl]amino]benzyloxy]-2-methylquinoline] |
| 95% | Cc1ccc2cccc(OCc3c(Cl)ccc(N(C)C(=O)CNC(=O)Nc4cccc(N)c4)c3Cl)c2n1 [41-(12), 8-[3-[N-[N'-(3-Aminophenyl)ureidoacetyl]-N-methylaminol-2,6-dichlorobenzyloxy]-2-methylquinolinedihydrochloride] |
